Laboratory results published in ChEMBL document CHEMBL1134433, “Discovery of a novel CCR3 selective antagonist” (Bioorg Med Chem Lett, 2001).

How the values were obtained:
Type in all cases: cell-based
[1] = molecular target: T1, C-C chemokine receptor type 3 (Homo sapiens) (UniProt P51677); experiment: Percent inhibition of [125I]eotaxin binding to human CCR3 receptor expressed in CHO cells at 1 uM
T1 sequence (whole entry): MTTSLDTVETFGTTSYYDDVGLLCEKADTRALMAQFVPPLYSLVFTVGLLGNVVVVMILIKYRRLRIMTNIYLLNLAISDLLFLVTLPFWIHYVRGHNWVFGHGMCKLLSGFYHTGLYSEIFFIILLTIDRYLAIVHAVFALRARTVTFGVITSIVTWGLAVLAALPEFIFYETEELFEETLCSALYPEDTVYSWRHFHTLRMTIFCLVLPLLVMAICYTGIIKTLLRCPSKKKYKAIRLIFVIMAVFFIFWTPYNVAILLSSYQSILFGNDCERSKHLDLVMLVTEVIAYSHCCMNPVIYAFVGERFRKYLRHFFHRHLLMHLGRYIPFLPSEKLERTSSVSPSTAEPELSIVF

[2] = molecular target: T2, C-C chemokine receptor type 3 (Homo sapiens, UniProt P51677); experiment: Concentration required for 50% inhibition of [125I]eotaxin binding to human CCR3 receptor expressed in CHO cells
T2 sequence (P51677 whole entry): T1 sequence (whole entry)

[3] = molecular target: T3, C-C chemokine receptor type 1 (Homo sapiens, UniProt P32246); experiment: Concentration required for 50% inhibition of [125I]eotaxin binding to human CCR1 receptor expressed in CHO cells
T3 sequence (P32246 whole entry): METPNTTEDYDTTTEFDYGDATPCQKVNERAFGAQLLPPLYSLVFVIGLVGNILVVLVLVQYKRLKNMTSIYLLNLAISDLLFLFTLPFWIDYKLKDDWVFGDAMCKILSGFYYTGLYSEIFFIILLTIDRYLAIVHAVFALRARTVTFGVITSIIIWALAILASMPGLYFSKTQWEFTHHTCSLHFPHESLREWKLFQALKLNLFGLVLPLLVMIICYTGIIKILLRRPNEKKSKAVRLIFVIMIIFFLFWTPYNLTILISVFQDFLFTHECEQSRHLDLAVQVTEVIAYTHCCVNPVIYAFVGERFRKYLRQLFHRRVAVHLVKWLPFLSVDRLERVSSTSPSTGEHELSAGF

In the case of `O=C(CSc1nc2ccccc2s1)NCC1CCCN(CCc2ccccc2)C1` (stereo not given), the inhibition [1] is reported as 0%.

In the case of `O=C(CSc1nc2ccccc2s1)NC1CCN(Cc2ccc(Cl)c(Cl)c2)CC1`, the IC50 [2] is reported as 0.032 µM and the IC50 [3] is reported as 0.45 µM.

Compound `O=C(CSc1nc2ccccc2s1)NCC1CCCN(Cc2ccc3ccccc3c2)C1` (stereo not given) has an inhibition [1] of 5%.

For `O=C(CSc1nc2ccccc2s1)NC1CCN(Cc2ccccc2)CC1`, the IC50 [2] was 0.75 µM and the IC50 [3] was 7.1 µM.

Compound `O=C(CSc1nc2ccccc2s1)NCC1CCCN(CC2CCCCC2)C1` (stereo not given) has an IC50 [2] of 1 µM.

Work on `O=C(CSc1nc2ccccc2s1)NC1CCN(Cc2ccc(Cl)cc2)CC1` yielded an IC50 [2] of 0.079 µM and an IC50 [3] of 0.26 µM.

Work on `O=C(CSc1nc2ccccc2s1)NCC1CCCN(Cc2ccncc2)C1` (stereo not given) yielded an inhibition [1] of 0%.

`CCOC(=O)c1ccc2nc(SCC(=O)NC3CCN(Cc4ccc(Cl)c(Cl)c4)CC3)sc2c1` was tested, and the IC50 [2] was 0.048 µM and the IC50 [3] was greater than 10 µM.

Work on `CCCN1CCCC(CNC(=O)CSc2nc3ccccc3s2)C1` (stereo not given) yielded an inhibition [1] of 30%.

`CCCCCN1CCCC(CNC(=O)CSc2nc3ccccc3s2)C1` (stereo not given) was tested, and the inhibition [1] was 0%.

`O=C(CSc1nc2ccccc2s1)NC1CCN(Cc2cccc(Cl)c2)CC1` showed an IC50 [2] of 0.28 µM and an IC50 [3] greater than 10 µM.

`O=C(CSc1nc2ccccc2s1)NCC1CCCN(Cc2cccnc2)C1` (stereo not given) gave an inhibition [1] of 0%.

Compound `O=C(CSc1nc2ccccc2s1)NCC1CCCN(Cc2cccc3ccccc23)C1` (stereo not given) has an inhibition [1] of 15%.

`CCOc1ccc2nc(SCC(=O)NC3CCN(Cc4ccc(Cl)c(Cl)c4)CC3)sc2c1` was tested, and the IC50 [2] was 0.02 µM and the IC50 [3] was 3.6 µM.

In the case of `O=C(CSc1nc2ccccc2s1)NCC1CCCN(Cc2ccccc2)C1` (stereo not given), the IC50 [2] is reported as 1 µM and the IC50 [3] is reported as 4.2 µM.

With `Nc1ccc2nc(SCC(=O)NC3CCN(Cc4ccc(Cl)c(Cl)c4)CC3)sc2c1` the IC50 [2] was 0.0023 µM and the IC50 [3] was 1.9 µM.

With `O=C(CSc1nc2ccccc2s1)NCC1CCCN(Cc2nccs2)C1` (stereo not given) the inhibition [1] was 0%.
